Patent publication US7465806B2, “Pyrrole-derivatives as factor Xa inhibitors” (SANOFI-AVENTIS Deutschland GmbH, priority 2004, dated 2008)

Each compound was assayed against T1, human factor Xa (Homo sapiens, UniProt P00742) (assay: Factor Xa chromogenic assay (inhibition of factor Xa activity)). Settings: inhibition constant for factor Xa; chromogenic substrate S-2765 140 μM, enzyme 0.5 nM, 25° C.; Ki calculated from IC50; read-out: Ki(FXa).
T1 construct: human factor Xa (Enzyme Research Laboratories, Inc; South Bend, Indiana); purchased Enzyme Research Laboratories, Inc; South Bend, Indiana
Assay type: biochemical
Procedure: The ability of the compounds of the formulae I and Ia to inhibit factor Xa or factor VIIa or other enzymes like thrombin, plasmin, or trypsin can be assessed by determining the concentration of the compound of the formulae I and Ia that inhibits enzyme activity by 50%, i.e. the IC50 value, which was related to the inhibition constant Ki. Purified enzymes were used in chromogenic assays. The concentration of inhibitor that causes a 50% decrease in the rate of substrate hydrolysis was determined by linear regression after plotting the relative rates of hydrolysis (compared to the uninhibited control) versus the log of the concentration of the compound of formulae I and Ia. For calculating the inhibition constant Ki, the IC50 value was corrected for competition with substrate using the formula Ki=IC50/{1+(substrate concentration/Km)} wherein Km is the Michaelis-Menten constant (Chen and Prusoff, Biochem. Pharmacol. 22 (1973), 3099-3108; I. H. Segal, Enzyme Kinetics, 1975, John Wiley & Sons, New York, 100-125; which were incorporated herein by reference). a) Factor Xa Assay
In the assay for determining the inhibition of factor Xa activity TBS-PEG buffer (50 mM Tris-HCl, pH 7.8,200 mM NaCl, 0.05% (w/v) PEG-8000, 0.02% (w/v) NaN3) was used. The IC50 was determined by combining in appropriate wells of a Costar half-area microtiter plate 25 μl human factor Xa (Enzyme Research Laboratories, Inc.; South Bend, Indiana) in TBS-PEG; 40 μl 10% (v/v) DMSO in TBS-PEG (uninhibited control) or various concentrations of the compound to be tested diluted in 10% (v/v) DMSO in TBS-PEG; and substrate S-2765 (N(α)-benzyloxycarbonyl-D-Arg-Gly-L-Arg-p-nitroanilide; Kabi Pharmacia, Inc.; Franklin, Ohio) in TBS-PEG.
The assay was performed by pre-incubating the compound of formulae I and Ia plus enzyme for 10 min. Then the assay was initiated by adding substrate to obtain a final volume of 100 μl. The initial velocity of chromogenic substrate hydrolysis was measured by the change in absorbance at 405 nm using a Bio-tek Instruments kinetic plate reader (Ceres UV900HDi) at 25° C. during the linear portion of the time course (usually 1.5 min after addition of substrate). The enzyme concentration was 0.5 nM and substrate concentration was 140 μM.

T1 sequence (P00742 235-488 limits assumed): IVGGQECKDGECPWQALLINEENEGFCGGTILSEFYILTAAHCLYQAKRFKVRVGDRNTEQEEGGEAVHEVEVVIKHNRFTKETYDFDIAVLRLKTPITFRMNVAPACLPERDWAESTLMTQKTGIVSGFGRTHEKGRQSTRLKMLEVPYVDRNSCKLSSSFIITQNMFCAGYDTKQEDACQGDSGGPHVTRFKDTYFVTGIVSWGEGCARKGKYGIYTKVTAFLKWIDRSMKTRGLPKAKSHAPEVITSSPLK
T1 sequence (P00742 41-179 partner limits assumed): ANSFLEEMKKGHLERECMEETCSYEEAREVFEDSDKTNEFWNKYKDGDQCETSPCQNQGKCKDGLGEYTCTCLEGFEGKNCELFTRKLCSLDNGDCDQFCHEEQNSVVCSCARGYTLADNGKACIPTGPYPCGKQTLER

Compared with CC(C)N1CCC(NC(=O)c2cccn2Cc2cc(-c3ccc(Cl)s3)on2)CC1 [Example 1, 1-[5-(5-Chloro-thiophen-2-yl)-isoxazol-3-ylmethyl]-1H-pyrrole-2-carboxylic acid (1-isopropyl-piperidin-4-yl)-amide], CC(C)N1CCC(NC(=O)c2cc([N+](=O)[O-])cn2Cc2cc(-c3ccc(Cl)s3)on2)CC1 [Example 3, 1-[5-(5-Chloro-thiophen-2-yl)-isoxazol-3-ylmethyl]-4-nitro-1H-pyrrole-2-carboxylic acid (1-isopropyl-piperidin-4-yl)-amide] is 1.8-fold lower in Ki: 0.077 µM for the first, 0.043 µM for the second.

Compared with COc1cccc(Cn2cccc2C(=O)NC2CCN(C(C)C)CC2)c1 [Example 2, 1-(3-Methoxy-benzyl)-1H-pyrrole-2-carboxylic acid (1-isopropyl-piperidin-4-yl)-amide], COC(=O)c1ccc(C(=O)NC2CCN(C(C)C)CC2)n1Cc1cc(-c2ccc(Cl)s2)on1 [Example 10, 1-[5-(5-Chloro-thiophen-2-yl)-isoxazol-3-ylmethyl]-5-(1-isopropyl-piperidin-4-ylcarbamoyl)-1H-pyrrole-2-carboxylic acid methyl ester] is 1200-fold lower in Ki: 8.06 µM for the first, 0.007 µM for the second.

Compared with Cc1cc(C)n(Cc2cc(-c3ccc(Cl)s3)on2)c1C(=O)NC1CCN(C(C)C)CC1 [Example 4, 1-[5-(5-Chloro-thiophen-2-yl)-isoxazol-3-ylmethyl]-3,5-dimethyl-1H-pyrrole-2-carboxylic acid (1-isopropyl-piperidin-4-yl)-amide], Cc1c(Br)c(C)n(Cc2cc(-c3ccc(Cl)s3)on2)c1C(=O)NC1CCN(C(C)C)CC1 [Example 23, 4-Bromo-1-[5-(5-chloro-thiophen-2-yl)-isoxazol-3-ylmethyl]-3,5-dimethyl-1H-pyrrole-2-carboxylic acid (1-isopropyl-piperidin-4-yl)-amide] is 2.2-fold lower in Ki: 0.011 µM for the first, 0.005 µM for the second. The second binds more tightly here.

Compared with CC(C)N1CCC(NC(=O)c2cc(C(=O)N3CCCOCC3)cn2CC(=O)Nc2ccc(Cl)cn2)CC1 [Example 5, 1-[(5-Chloro-pyridin-2-ylcarbamoyl)-methyl]-4-(perhydro-1,4-oxazepine-4-carbonyl)-1H-pyrrole-2-carboxylic acid (1-isopropyl-piperidin-4-yl)-amide], CC(C)N1CCC(NC(=O)c2ccc(C(=O)N3CCCOCC3)n2CC(=O)Nc2ccc(Cl)cn2)CC1 [Example 6, 1-[(5-Chloro-pyridin-2-ylcarbamoyl)-methyl]-5-(perhydro-1,4-oxazepine-4-carbonyl)-1H-pyrrole-2-carboxylic acid (1-isopropyl-piperidin-4-yl)-amide] is 11-fold higher in Ki: 0.081 µM for the first, 0.902 µM for the second. The first binds more tightly here.

CC(C)N1CCC(NC(=O)c2ccc(C(=O)N3CCCOCC3)n2Cc2cc(-c3ccc(Cl)s3)on2)CC1 [Example 7, 1-[5-(5-Chloro-thiophen-2-yl)-isoxazol-3-ylmethyl]-5-(perhydro-1,4-oxazepine-4-carbonyl)-1H-pyrrole-2-carboxylic acid (1-isopropyl-piperidin-4-yl)-amide] and CC(C)N1CCC(NC(=O)c2ccc(C(=O)O)n2Cc2cc(-c3ccc(Cl)s3)on2)CC1 [Example 11, 1-[5-(5-Chloro-thiophen-2-yl)-isoxazol-3-ylmethyl]-5-(1-isopropyl-piperidin-4-ylcarbamoyl)-1H-pyrrole-2-carboxylic acid] are within 1.5-fold of each other in Ki: 0.249 µM for the first, 0.294 µM for the second.

Compared with Cc1c(CCC(=O)O)c(C)n(Cc2cc(-c3ccc(Cl)s3)on2)c1C(=O)NC1CCN(C(C)C)CC1 [Example 8, 3-[1-[5-(5-Chloro-thiophen-2-yl)-isoxazol-3-ylmethyl]-5-(1-isopropyl-piperidin-4-ylcarbamoyl)-2,4-dimethyl-1H-pyrrol-3-yl]-propionic acid], Cc1c(C=O)c(C)n(Cc2cc(-c3ccc(Cl)s3)on2)c1C(=O)NC1CCN(C(C)C)CC1 [Example 25, 1-[5-(5-Chloro-thiophen-2-yl)-isoxazol-3-ylmethyl]-4-formyl-3,5-dimethyl-1H-pyrrole-2-carboxylic acid (1-isopropyl-piperidin-4-yl)-amide] is 6.3-fold lower in Ki: 0.152 µM for the first, 0.024 µM for the second.

First: CC(C)N1CCC(NC(=O)c2ccc(C(=O)OCc3ccccc3)n2Cc2cc(-c3ccc(Cl)s3)on2)CC1 [Example 9, 1-[5-(5-Chloro-thiophen-2-yl)-isoxazol-3-ylmethyl]-5-(1-isopropyl-piperidin-4-ylcarbamoyl)-1H-pyrrole-2-carboxylic acid benzyl ester]
Second: CC(C)N1CCC(NC(=O)c2cc(C(=O)OCc3ccccc3)n(Cc3cc(-c4ccc(Cl)s4)on3)c2)CC1 [Example 13, 1-[5-(5-Chloro-thiophen-2-yl)-isoxazol-3-ylmethyl]-4-(1-isopropyl-piperidin-4-ylcarbamoyl)-1H-pyrrole-2-carboxylic acid benzyl ester]
The Ki of the first is 9.6-fold lower: 0.997 µM for the first, 9.58 µM for the second. The first binds more tightly here.

CC(C)N1CCC(NC(=O)c2cc(C(=O)OCc3ccccc3)n(CC(=O)Nc3ccc(Cl)cn3)c2)CC1 [Example 12, 1-[(5-Chloro-pyridin-2-ylcarbamoyl)-methyl]-4-(1-isopropyl-piperidin-4-ylcarbamoyl)-1H-pyrrole-2-carboxylic acid benzyl ester] and COC(=O)c1cc(C(=O)NC2CCN(C(C)C)CC2)cn1CC(=O)Nc1ccc(Cl)cn1 [Example 15, 1-[(5-Chloro-pyridin-2-ylcarbamoyl)-methyl]-4-(1-isopropyl-piperidin-4-ylcarbamoyl)-1H-pyrrole-2-carboxylic acid methyl ester] are within 1.5-fold of each other in Ki: 34.9 µM for the first, 41.3 µM for the second.

First: CC(C)N1CCC(NC(=O)c2cc([N+](=O)[O-])cn2CC(=O)Nc2ccc(Cl)cn2)CC1 [Example 14, 1-[(5-Chloro-pyridin-2-ylcarbamoyl)-methyl]-4-nitro-1H-pyrrole-2-carboxylic acid (1-isopropyl-piperidin-4-yl)-amide]
Second: Cc1c(Br)c(C)n(CC(=O)Nc2ccc(Cl)cn2)c1C(=O)NC1CCN(C(C)C)CC1 [Example 24, 4-Bromo-1-[(5-chloro-pyridin-2-ylcarbamoyl)-methyl]-3,5-dimethyl-1H-pyrrole-2-carboxylic acid (1-isopropyl-piperidin-4-yl)-amide]
The Ki of the first is 5.4-fold higher: 0.059 µM for the first, 0.011 µM for the second.

First: COC(=O)c1cc(C(=O)NC2CCN(C(C)C)CC2)cn1Cc1cc(-c2ccc(Cl)s2)on1 [Example 16, 1-[5-(5-Chloro-thiophen-2-yl)-isoxazol-3-ylmethyl]-4-(1-isopropyl-piperidin-4-ylcarbamoyl)-1H-pyrrole-2-carboxylic acid methyl ester]
Second: CC(C)N1CCC(NC(=O)c2cc(C(=O)O)n(Cc3cc(-c4ccc(Cl)s4)on3)c2)CC1 [Example 17, 1-[5-(5-Chloro-thiophen-2-yl)-isoxazol-3-ylmethyl]-4-(1-isopropyl-piperidin-4-ylcarbamoyl)-1H-pyrrole-2-carboxylic acid]
The Ki of the first is 6.2-fold lower: 1.44 µM for the first, 8.99 µM for the second.

First: COCCNC(=O)c1ccc(C(=O)NC2CCN(C(C)C)CC2)n1Cc1cc(-c2ccc(Cl)s2)on1 [Example 19, 1-[5-(5-Chloro-thiophen-2-yl)-isoxazol-3-ylmethyl]-1H-pyrrole-2,5-di carboxylic acid 2-[(1-isopropyl-piperidin-4-yl)-amide] 5-[(2-methoxy-ethyl)-amide]]
Second: COCCN(C)C(=O)c1ccc(C(=O)NC2CCN(C(C)C)CC2)n1Cc1cc(-c2ccc(Cl)s2)on1 [Example 20, 1-[5-(5-Chloro-thiophen-2-yl)-isoxazol-3-ylmethyl]-1H-pyrrole-2,5-dicarboxylic acid 2-[(1-isopropyl-piperidin-4-yl)-amide] 5-[(2-methoxy-ethyl)-methyl-amide]]
The Ki of the first is 1.5-fold higher: 0.088 µM for the first, 0.057 µM for the second. The second binds more tightly here.

Going from CC(C)N1CCC(NC(=O)c2ccc(-c3ccccc3)n2Cc2cc(-c3ccc(Cl)s3)on2)CC1 [Example 21, 1-[5-(5-Chloro-thiophen-2-yl)-isoxazol-3-ylmethyl]-5-phenyl-1H-pyrrole-2-carboxylic acid (1-isopropyl-piperidin-4-yl)-amide] to Cc1c(S(=O)(=O)N2CCCOCC2)c(C)n(Cc2cc(-c3ccc(Cl)s3)on2)c1C(=O)NC1CCN(C(C)C)CC1 [Example 22, 1-[5-(5-Chloro-thiophen-2-yl)-isoxazol-3-ylmethyl]-3,5-dimethyl-4-(perhydro-1,4-oxazepine-4-sulfonyl)-1H-pyrrole-2-carboxylic acid (1-isopropyl-piperidin-4-yl)-amide], the Ki rises from 0.005 µM to 0.112 µM (22-fold).
